Measured values as given in ChEMBL document CHEMBL4052809, “Development of a highly reliable assay for ubiquitin-specific protease 2 inhibitors” (Bioorg Med Chem Lett, 2017).
Active and inactive are the calls of the source. The rule behind the calls is not given here.

Legend:
[1] = molecular target: T1, Ubiquitin carboxyl-terminal hydrolase 2 (Homo sapiens) (UniProt O75604); assay: Inhibition of recombinant human N-terminal His-tagged USP2 catalytic domain (258 to 605 residues) expressed in Escherichia coli BL21(DE3) at 100 uM using human N-terminal GST-tagged UBA52 as substrate pretreated for 10 mins followed by substrate addition after 60 mins by coomassie staining based assay
T1 sequence (whole entry): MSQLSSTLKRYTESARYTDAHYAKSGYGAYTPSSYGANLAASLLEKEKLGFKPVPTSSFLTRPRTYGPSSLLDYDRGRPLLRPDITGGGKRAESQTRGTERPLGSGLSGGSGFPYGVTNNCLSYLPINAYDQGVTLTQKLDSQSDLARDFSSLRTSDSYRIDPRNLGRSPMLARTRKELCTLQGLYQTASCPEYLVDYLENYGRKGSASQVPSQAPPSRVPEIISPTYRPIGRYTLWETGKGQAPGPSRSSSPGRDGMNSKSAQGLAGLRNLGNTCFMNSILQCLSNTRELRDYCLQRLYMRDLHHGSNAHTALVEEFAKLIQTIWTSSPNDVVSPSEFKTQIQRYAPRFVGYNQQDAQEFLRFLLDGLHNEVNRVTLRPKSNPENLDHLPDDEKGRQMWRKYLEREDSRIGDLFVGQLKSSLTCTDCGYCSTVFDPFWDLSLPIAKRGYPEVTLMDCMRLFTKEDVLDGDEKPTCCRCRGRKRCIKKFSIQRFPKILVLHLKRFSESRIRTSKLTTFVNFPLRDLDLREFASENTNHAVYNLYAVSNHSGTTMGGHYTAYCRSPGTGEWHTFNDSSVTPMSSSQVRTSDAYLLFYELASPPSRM

[2] = molecular target: T2, Ubiquitin carboxyl-terminal hydrolase 2 (Homo sapiens, UniProt O75604); assay: Inhibition of recombinant human N-terminal His-tagged USP2 catalytic domain (258 to 605 residues) expressed in Escherichia coli BL21(DE3) using human N-terminal GST-tagged UBA52 as substrate pretreated for 10 mins followed by substrate addition after 60 mins by coomassie staining based assay
T2 sequence (O75604 whole entry): T1 sequence (whole entry)

inhibition [1]: Active
IC50 [2]: 66.1 to 74.3 µM
Structure (SMILES): CC(=O)Nc1cccc(CNC(=O)c2sc3ccccc3c2OCc2ccccc2)c1
